Laboratory results published in article PMC9400670, “Establishing the selective phospholipid membrane coordination, permeation and lysis properties for a series of ‘druggable’ supramolecular self-associating antimicrobial amphiphiles” (Chemical Science, 2022).

Test system: DPH-labelled synthetic vesicles
Assay: Synthetic vesicle membrane fluidity assay (DPH fluorescence polarisation)
Conditions: increasing SSA concentration; polar phospholipid membranes, excluding PC only; 298 K
Method: To further explore the effects of SSAs on physical phospholipid membrane characteristics, membrane fluidity experiments were performed. Here a dye (1,6-diphenyl-1,3,5-hexatriene – DPH) was inserted into the synthetic vesicle membrane to enable the study of increased/decreased membrane fluidity through competitive fluorescence polarisation (FP) measurements. In these studies, FP values are found to decrease with increasing membrane fluidity and vice versa. However, these studies could only be performed with SSAs 1–4 and 7 due to overlapping SSA/DHP fluorescence emission.
Section 2: General Methods […]
All solvents and starting materials were purchased from known chemical suppliers or available stores and used without any further purification unless specifically stipulated. […] Fluorescence and fluorescence polarisation measurements were conducted using a Clariostar plate reader and analysed using MARS data analysis […]
Preparation of calcein loaded vesicles: Lipid films were resuspended in buffer A (70 mM calcein, 10 mM TRIS pH 8.5, 0.5 mM EDTA, 110 mM NaCl, pH adjusted to 6-7) and subjected to 9 freeze-thaw cycles in liquid nitrogen and extruded 20 times through a 200 nm polycarbonate membrane. […] The hydrodynamic dimeter of the lipids was monitored using an Anton Paar LitesizerTM 500 to ensure the separation of free and entrapped calcein. […]

Compound: O=C(O)CNC(=O)Nc1ccc(C(F)(F)F)cc1 [SSA 4]
- overall change in FP (membrane fluidity): > 10%
